This series is described as follows: Cell viability of neurons pre-incubated 48 h with test item only (no AβO), MTT assay. It counts as cell-based. As to conditions: C57BL6/J, mouse, mouse primary cortical neurons, 1 nM compound C only, 48 h pre-incubation. Here is the method:
Mouse primary cortical neurons were pre-incubated for 48 h with vehicle, 0.05 μM DHA (used as positive control) or different concentrations of Compound C. Then, cortical neurons were treated for 24 h with vehicle (FIG. 1 left) or 1 μM AβO (FIG. 2 right) and cell viability was determined using the MTT assay (n=3 determinations per condition, 1 independent experiment), Data are represented as % of vehicle control (Mean*SD).
Mouse primary cortical neurons were pre-incubated for 48 h with vehicle, 0.05 μM DHA (used as positive control) or different concentrations of Herb B Extracts. Then, cortical neurons were treated for 24 h with vehicle (FIG. 10 left) or 1 μM AβO (FIG. 11 right) and cell viability was determined using the MTT assay (n=3 determinations per condition, 1 independent experiment), Data are represented as % of vehicle control (Mean±SD).
Cortical neurons from embryonic day 16-17 are prepared from C57BL6/J mouse fetuses. In brief, dissociated cortical cells were plated (50.000 cells/well) in 48-well plates pre-coated with 1.5 μg/mL polyornithine (Sigma). […] The AβO-induced neurotoxicity was evaluated using the MTT assay.
Cortical neurons from embryonic day 16-17 are prepared from C57BL6/J mouse fetuses. […] The AβO-induced neurotoxicity was evaluated using the MTT assay. […]
(In general: Tetrazolium assays rely on reduction of a dye to a coloured formazan, in cell work by metabolically active cells.)

Consider `CCCCCCCCCCCCCCC(=O)OCC(COC(=O)CCCCCCCCCCCCCC)OC(=O)CCCCCCCCCCCCCC` [Compound C, tripentadecanoin], for which the viability (usually a read-out of living cells in per cent, often relative to untreated cells) at 48 h, 0.001 µM worked out at 117 ± 3.7%.

The values are drawn from patent US12594255B2, “Lipids with odd number of carbon atoms and their use as pharmaceutical composition or nutritional supplement” (SunRegen Healthcare AG, priority 2016, dated 2026).
